Measurements reported in patent US20100069341A1, “TETRAHYDRO-PYRANOPYRAZOLE CANNABINOID MODULATORS” (priority 2005, published 2010).
Where two headings read alike, the source gives them in different places.

How the values were obtained:
Cannabinoid CB2 Receptor = molecular target: T1, Cannabinoid CB2 Receptor (Homo sapiens, UniProt P34972); assay: Binding assay, cannabinoid CB2 receptor ([3H]-CP-55,940 displacement, SK-N-MC cell membranes); settings: test concentration of 0.2 μM, human CB2 in SK-N-MC membranes; for inhibition at 0.2 µM: read-out: Cannabinoid CB2 Receptor Binding, percent inhibition
T1 construct: expressed in transfected cells; semi-purified membrane pellet
T1 sequence (P34972 whole entry): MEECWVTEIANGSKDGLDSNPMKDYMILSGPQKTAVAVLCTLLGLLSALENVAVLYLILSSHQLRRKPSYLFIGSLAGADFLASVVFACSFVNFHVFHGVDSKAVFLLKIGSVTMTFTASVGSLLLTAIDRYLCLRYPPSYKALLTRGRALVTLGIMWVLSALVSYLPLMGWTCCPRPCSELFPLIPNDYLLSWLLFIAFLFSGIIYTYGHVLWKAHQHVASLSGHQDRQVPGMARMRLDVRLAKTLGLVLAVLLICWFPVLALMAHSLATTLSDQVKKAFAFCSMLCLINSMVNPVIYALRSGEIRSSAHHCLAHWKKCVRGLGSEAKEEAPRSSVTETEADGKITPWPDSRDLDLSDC
Protocol: (§1) Binding Assay for CB1 or CB2 Agonists or Inverse Agonists
(§2) The human CB1 and CB2 receptors were stably expressed in SK-N-MC cells transfected with pcDNA3 CB-1 (human) or pcDNA3 CB-2 (human). The cells were grown in T-180 cell culture flasks under standard cell culture conditions at 37° C. in a 5% CO2 atmosphere. The cells were harvested by trysinization and homogenized in a homogenization buffer (10 mM Tris, 0.2 mM MgCl2, 5 mM KCl, with protease inhibitors aprotinin, leupeptin, pepstatin A and bacitracin) and centrifuged (2000 g). The supernatant was then centrifuged in 2M sucrose (31,300 g) to produce a semi-purified membrane pellet. The pellet was resuspended in homogenization and store at −80° C.
(§3) On the day of the assay, the pellet was thawed on ice and diluted in assay buffer (50 mM Tris-HCl, 5 mM MgCl2, 2.5 mM EDTA, 0.5 mg/mL fatty acid free bovine serum albumin, pH 7.5). The diluted membrane was added with buffer, test compound or standard and the radioligand [H]^3+-CP-55,940 (0.2 nM) to the wells of a 96-well polypropylene plate. Non-specific binding was measured in wells containing 10 uM WIN 55,212. The plate was covered and incubated for 90 minutes at 30° C. The contents were then aspirated onto a Packard Unifilter GF/C filter bottom plate prewet with 0.5% polyethyleneimine. The wells of the polypropylene plate were rinsed and aspirated seven times with a 0.9% saline-0.5% Tween 20 solution. The Unifilter plate was dried, a scintillation cocktail was added to each well and the counts representing binding were quantitated in a TopCount scintillation counter.
For compounds tested, an IC50 binding value was obtained from percent inhibition studies in which various test concentrations were used. The binding value (in μM) was calculated by linear regression. For compounds without an IC50 binding value, the percent inhibition (in %) was obtained at a test concentration of 0.2 μM.

Cannabinoid CB1 Receptor = molecular target: T2, Cannabinoid CB1 Receptor (Homo sapiens, UniProt P21554); assay: Binding assay, cannabinoid CB1 receptor ([3H]-CP-55,940 displacement, SK-N-MC cell membranes); settings: for inhibition at 0.2 µM: read-out: Cannabinoid CB1 Receptor Binding, percent inhibition
T2 construct: expressed in transfected cells; semi-purified membrane pellet
T2 sequence (P21554 whole entry): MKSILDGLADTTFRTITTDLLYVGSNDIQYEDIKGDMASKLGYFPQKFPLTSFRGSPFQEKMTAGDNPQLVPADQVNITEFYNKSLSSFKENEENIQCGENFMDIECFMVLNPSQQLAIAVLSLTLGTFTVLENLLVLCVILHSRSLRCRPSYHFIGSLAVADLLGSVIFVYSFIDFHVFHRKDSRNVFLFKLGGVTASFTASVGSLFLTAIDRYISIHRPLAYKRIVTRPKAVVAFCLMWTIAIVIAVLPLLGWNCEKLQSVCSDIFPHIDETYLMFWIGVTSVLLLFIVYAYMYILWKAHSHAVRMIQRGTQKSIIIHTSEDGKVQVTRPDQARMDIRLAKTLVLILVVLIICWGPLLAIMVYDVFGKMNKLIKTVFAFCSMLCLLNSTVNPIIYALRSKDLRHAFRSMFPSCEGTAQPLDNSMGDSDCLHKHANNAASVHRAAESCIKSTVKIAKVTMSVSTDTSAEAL
Protocol: as §1, §2
as §3, with “The diluted membrane was added with buffer, test compound or standard and the radioligand [H]^3+-CP-55,940 (0.2 nM) to the wells of a 96-well polypropylene plate. Non-specific binding was measured in wells containing 10 uM WIN 55,212.” left out
For compounds tested, an IC50 binding value was obtained from percent inhibition studies in which various test concentrations were used. The binding value (in μM) was calculated by linear regression.

[1] = test concentration of 0.2 μM, human CB1 in SK-N-MC membranes

Compound | inhibition at 0.2 µM (Cannabinoid CB2 Receptor) | IC50 (Cannabinoid CB1 Receptor) | inhibition at 0.2 µM (Cannabinoid CB1 Receptor; [1]) | inhibition at 0.2 µM (Cannabinoid CB1 Receptor) | Cannabinoid CB2 Receptor Binding, percent inhibition (Cannabinoid CB2 Receptor) | IC50 (Cannabinoid CB1 Receptor; human CB1 in SK-N-MC membranes, radioligand CP-55,940 0.2 nM, calculated by linear regression, read-out: Cannabinoid CB1 Receptor Binding, IC50 binding value) | Cannabinoid CB1 Receptor Binding, percent inhibition (Cannabinoid CB1 Receptor; [1])
O=C(NN1CCCC1)c1nn(-c2ccc(Cl)cc2Cl)c2c1COC/C2=C\c1ccsc1 [Cpd 47, (7Z)-1-(2,4-dichloro-phenyl)-7-thiophen-3-ylmethylene-1,4,6,7-tetrahydro-pyrano[4,3-c]pyrazole-3-carboxylic acid pyrrolidin-1-ylamide] | 9% | 30 nM | 70% | – | – | – | –
O=C(c1nn(-c2ccc(Cl)cc2Cl)c2c1COC/C2=C\c1ccc(F)cc1)N1CCC[C@@H]1CO [Cpd 20, (7Z)-[1-(2,4-dichloro-phenyl)-7-(4-fluoro-benzylidene)-1,4,6,7-tetrahydro-pyrano[4,3-c]pyrazol-3-yl]-[(2R)-2-hydroxymethyl-pyrrolidin-1-yl]-methanone] | 18% | – | 27% | – | – | – | –
C[C@@H](NC(=O)c1nn(-c2ccc(Cl)cc2Cl)c2c1COC/C2=C\c1ccc(Cl)o1)c1ccccn1 [Cpd 66, (7Z)-7-(5-chloro-furan-2-ylmethylene)-1-(2,4-dichloro-phenyl)-1,4,6,7-tetrahydro-pyrano[4,3-c]pyrazole-3-carboxylic acid [(R)-1-pyridin-2-yl-ethyl]-amide] | 10% | – | 58% | – | – | – | –
O=C(c1nn(-c2ccc(Cl)cc2Cl)c2c1COC/C2=C\c1ccc(F)cc1)N1CCCCC1 [Cpd 8, (7Z)-[1-(2,4-dichloro-phenyl)-7-(4-fluoro-benzylidene)-1,4,6,7-tetrahydro-pyrano[4,3-c]pyrazol-3-yl]-piperidin-1-yl-methanone] | 7% | – | 45% | – | – | – | –
O=C(c1nn(-c2ccc(Cl)cc2Cl)c2c1COC/C2=C\c1ccc(F)cc1)N1CCC[C@H]1CO [Cpd 21, (7Z)-[1-(2,4-dichloro-phenyl)-7-(4-fluoro-benzylidene)-1,4,6,7-tetrahydro-pyrano[4,3-c]pyrazol-3-yl]-[(2S)-2-hydroxymethyl-pyrrolidin-1-yl]-methanone] | 15% | – | 59% | – | – | – | –
O=C(NN1CCCCC1)c1nn(-c2ccc(Cl)cc2Cl)c2c1COC/C2=C\c1cccs1 [Cpd 35, (7Z)-1-(2,4-dichloro-phenyl)-7-thiophen-2-ylmethylene-1,4,6,7-tetrahydro-pyrano[4,3-c]pyrazole-3-carboxylic acid piperidin-1-ylamide] | 12% | – | 68% | – | – | – | –
O=C(NCc1ccccn1)c1nn(-c2ccc(Cl)cc2Cl)c2c1COC/C2=C\c1ccc(F)cc1 [Cpd 6, (7Z)-1-(2,4-dichloro-phenyl)-7-(4-fluoro-benzylidene)-1,4,6,7-tetrahydro-pyrano[4,3-c]pyrazole-3-carboxylic acid (pyridin-2-ylmethyl)-amide] | 25% | – | 37% | – | – | – | –
O=C(NN1CCCCCC1)c1nn(-c2ccc(Cl)cc2Cl)c2c1COC/C2=C\c1ccc(Cl)s1 [Cpd 53, (7Z)-7-(5-chloro-thiophen-2-ylmethylene)-1-(2,4-dichloro-phenyl)-1,4,6,7-tetrahydro-pyrano[4,3-c]pyrazole-3-carboxylic acid azepan-1-ylamide] | 10% | 10 nM | 83% | – | – | – | –
O=C(NN1CCCCC1)c1nn(-c2ccc(Cl)cc2Cl)c2c1COC/C2=C\c1ccc(F)cc1 [Cpd 7, (7Z)-1-(2,4-dichloro-phenyl)-7-(4-fluoro-benzylidene)-1,4,6,7-tetrahydro-pyrano[4,3-c]pyrazole-3-carboxylic acid piperidin-1-ylamide] | 8% | 40 nM | 79% | – | – | – | –
C[C@@H](NC(=O)c1nn(-c2ccc(Cl)cc2Cl)c2c1COC/C2=C\c1cccs1)c1ccccc1 [Cpd 32, (7Z)-1-(2,4-dichloro-phenyl)-7-thiophen-2-ylmethylene-1,4,6,7-tetrahydro-pyrano[4,3-c]pyrazole-3-carboxylic acid [(R)-1-phenyl-ethyl]-amide] | 11% | 20 nM | 76% | – | – | – | –
CN(C(=O)c1nn(-c2ccc(Cl)cc2)c2c1COC/C2=C\c1ccc(F)cc1)c1ccccc1 [Cpd 14, (7Z)-1-(4-chloro-phenyl)-7-(4-fluoro-benzylidene)-1,4,6,7-tetrahydro-pyrano[4,3-c]pyrazole-3-carboxylic acid methyl-phenyl-amide] | 7% | – | 49% | – | – | – | –
O=C(NN1CCCC1)c1nn(-c2ccc(Cl)cc2Cl)c2c1COC/C2=C\c1cccs1 [Cpd 34, (7Z)-1-(2,4-dichloro-phenyl)-7-thiophen-2-ylmethylene-1,4,6,7-tetrahydro-pyrano[4,3-c]pyrazole-3-carboxylic acid pyrrolidin-1-ylamide] | 7% | – | 54% | – | – | – | –
C[C@@H](NC(=O)c1nn(-c2ccc(Cl)cc2)c2c1COC/C2=C\c1ccc(F)cc1)C1CCCCC1 [Cpd 13, (7Z)-1-(4-chloro-phenyl)-7-(4-fluoro-benzylidene)-1,4,6,7-tetrahydro-pyrano[4,3-c]pyrazole-3-carboxylic acid [(1R)-1-cyclohexyl-ethyl]-amide] | 25% | 20 nM | – | 84% | – | – | –
C[C@H](NC(=O)c1nn(-c2ccc(Cl)cc2Cl)c2c1COC/C2=C\c1ccc(F)cc1)c1ccccc1 [Cpd 1, (7Z)-1-(2,4-dichloro-phenyl)-7-(4-fluoro-benzylidene)-1,4,6 7-tetrahydro-pyrano[4,3-c]pyrazole-3-carboxylic acid [(1S)-1-phenyl-ethyl]-amide] | 6% | – | 54% | – | – | – | –
CC1CCCC(C)N1NC(=O)c1nn(-c2ccc(Cl)cc2Cl)c2c1COC/C2=C\c1ccc(F)cc1 (stereo not shown) [Cpd 27, (7Z)-1-(2,4-dichloro-phenyl)-7-(4-fluoro-benzylidene)-1,4,6,7-tetrahydro-pyrano[4,3-c]pyrazole-3-carboxylic acid (2,6-dimethyl-piperidin-1-yl)-amide] | 20% | 40 nM | 77% | – | – | – | –
(7Z)-azepan-1-yl-[1-(2,4-dichloro-phenyl)-7-(4-fluoro-benzylidene)-1,4,6,7-tetrahydro-pyrano[4,3-c]pyrazol-3-yl]-methanone [Cpd 28] | – | – | – | – | 10% | 9 nM | 88%
O=C(NN1CCCCCC1)c1nn(-c2ccc(Cl)cc2Cl)c2c1COC/C2=C\c1ccsc1 [Cpd 44, (7Z)-1-(2,4-dichloro-phenyl)-7-thiophen-3-ylmethylene-1,4,6,7-tetrahydro-pyrano[4,3-c]pyrazole-3-carboxylic acid azepan-1-ylamide] | 16% | 20 nM | 86% | – | – | – | –
O=C(N[C@@H]1CCC[C@H]1O)c1nn(-c2ccc(Cl)cc2Cl)c2c1COC/C2=C\c1ccc(F)cc1 [Cpd 3, (7Z)-1-(2,4-dichloro-phenyl)-7-(4-fluoro-benzylidene)-1,4,6,7-tetrahydro-pyrano[4,3-c]pyrazole-3-carboxylic acid [(1R,2R)-2-hydroxy-cyclopentyl]-amide] | 0% | – | 32% | – | – | – | –
C[C@@H](NC(=O)c1nn(-c2ccc(Cl)cc2Cl)c2c1COC/C2=C\c1ccsc1)C1CCCCC1 [Cpd 39, (7Z)-1-(2,4-dichloro-phenyl)-7-thiophen-3-ylmethylene-1,4,6,7-tetrahydro-pyrano[4,3-c]pyrazole-3-carboxylic acid [(R)-1-cyclohexyl-ethyl]-amide] | 13% | 20 nM | – | 84% | – | – | –
O=C(NN1CCCC1)c1nn(-c2ccc(Cl)cc2Cl)c2c1COC/C2=C\c1ccc(Cl)s1 [Cpd 57, (7Z)-7-(5-chloro-thiophen-2-ylmethylene)-1-(2,4-dichloro-phenyl)-1,4,6,7-tetrahydro-pyrano[4,3-c]pyrazole-3-carboxylic acid pyrrolidin-1-ylamide] | 15% | – | 67% | – | – | – | –
